In patent US6720450B2, “Pesticidal activity of functionalized cyclopropanes” (North Carolina State University, priority 2001, dated 2004):

Test system: mosquito larvae
Experiment: Mosquito larval mortality bioassay in microtiter plates
Assay type: in vivo
Conditions: 72 h; larval mortality followed for three days; 160 μL sterile water, 1-4 μL test compound in dimethylsulfoxide, 10 μL 2% Brewer's yeast
Procedure: The term “LC50” also is used hereinafter and refers to the concentration of a pest-controlling compound of the invention in the ambient environment of the pest species that is able to cause a 50% mortality of such species. For example, in tests described hereinafter, wherein compounds of the invention are tested for pesticidal efficacy against mosquito larvae, the compounds are present in a state of dynamic equilibrium in the aqueous environment containing the yeast and are taken up by the filter-feeding mosquito larvae during their feeding on the yeast.
(§1) Mosquito larval mortality was followed for three days in microtiter plates containing 160 μL sterile water, 1-4 μL of the test compound dissolved in dimethylsulfoxide, and 10 μL of 2% Brewer's yeast.
as §1, with “yeast. Controls were run under the same conditions without the test compounds. Larval mortality in the controls was 3% for 1-3 μL dimethylsulfoxide, and up to 20% for 4 μL dimethylsulfoxide.” for “yeast.”

**Q.** How did the LC50 turn out when `O=C(O)CCC1CC1CCC1CCCCC1` (stereo not drawn) [IBI-216, 7-Cyclohexyl-trans-(4,5-methano)heptanoic acid] was run?
**A.** 300 ± 10 µM

**Q.** For `O=C(O)CCC1CC1CCc1ccccc1` (stereo not drawn) [IBI-215, 7-Phenyl-trans-(4,5-methano)heptanoic acid], which LC50 is on record?
**A.** 180 ± 30 µM

**Q.** How did the LC50 turn out when `O=C(O)CCC1CC1CCc1ccc(-c2ccccc2)cc1` (stereo not drawn) [IBI-217, 7-(4-Phenyl)phenyl-trans-(4,5-methano)heptanoic acid] was run?
**A.** 130 ± 40 µM
